This is an account of results in patent publication US10351530B2, “Arylcyclohexyl pyrazoles as NRF2 regulators” (GlaxoSmithKline Intellectual Property Development Limited, priority 2015, dated 2019).

The target in one test is T1, Keap1/NRF2 (Homo sapiens, UniProt Q14145).
T1 construct: Keap1 (321-609) is diluted to 40 nM (2×) in 1× assay buffer
Briefly: NRF2-Keap1 FP Assay (Kelch domain (321-609) of Keap1, TAMRA-labeled NRF2 ETGE peptide). The format is binding. Particulars: Keap1 (321-609) 20 nM, Tamra labeled peptide 8 nM. Summed up:
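Fluorescence polarization competition: Keap1 Kelch (321-609) at 20 nM final and TAMRA-ETGE 16-mer peptide at 8 nM final with 3-fold compound dilutions, 1 h room temperature in Tris pH 8.0 buffer (NaCl, MgCl2, DTT, CHAPS, BSA). mP normalized to protein+peptide and peptide-alone controls; pIC50 by four-parameter fit.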

The target of another test is T2, NRF2/Keap1 (Homo sapiens, UniProt Q14145).
T2 construct: full length NRF2 protein and full length Keap1 protein (Keap1 exists a dimer) are used
T2 sequence (Q14145 whole entry): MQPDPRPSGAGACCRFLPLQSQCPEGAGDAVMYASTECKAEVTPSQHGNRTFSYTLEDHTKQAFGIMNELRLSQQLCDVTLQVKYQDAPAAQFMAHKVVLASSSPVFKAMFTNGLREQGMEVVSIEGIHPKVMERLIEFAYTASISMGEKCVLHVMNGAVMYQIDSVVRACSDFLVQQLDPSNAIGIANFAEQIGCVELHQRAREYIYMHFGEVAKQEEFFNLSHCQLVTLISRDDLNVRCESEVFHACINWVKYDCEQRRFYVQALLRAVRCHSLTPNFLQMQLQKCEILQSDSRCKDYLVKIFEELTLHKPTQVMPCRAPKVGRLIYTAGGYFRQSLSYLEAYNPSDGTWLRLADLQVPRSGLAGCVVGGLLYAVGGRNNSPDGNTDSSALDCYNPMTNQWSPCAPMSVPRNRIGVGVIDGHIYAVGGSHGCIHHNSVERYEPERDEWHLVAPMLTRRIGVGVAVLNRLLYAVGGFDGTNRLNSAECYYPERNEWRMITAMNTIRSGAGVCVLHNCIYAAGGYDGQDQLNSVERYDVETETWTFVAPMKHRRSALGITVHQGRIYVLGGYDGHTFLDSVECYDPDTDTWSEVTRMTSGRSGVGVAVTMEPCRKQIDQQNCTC
Briefly: NRF2-Keap1 TR-FRET Low Protein Assay (full length NRF2 and full length Keap1). The format is binding. Particulars: low protein: 1.25 nM Keap1 FlagHis, 2.5 nM biotin-NRF2 added. An excerpt:
In the NRF2-Keap1 TR-FRET (time-resolved fluorescence resonance energy transfer) low protein assay, full length NRF2 protein and full length Keap1 protein (Keap1 exists a dimer) are used. The assay detects a compound's ability to displace the binding of Keap1 FlagHis with biotinylated Avi-NRF2 protein. Biotin-NRF2 binds to streptavidin-europium (a component of the detection mix) and Keap1 FlagHis is recognized by anti-Flag APC (allophycocyanin) antibody (also a component of the detection mix). If binding occurs between the two proteins, there will be an energy transfer from the Eu+3 (donor) at 615 nm to the APC (acceptor) at 665 nm. A potential NRF2 inhibitor will cause a reduction in the TR-FRET signal by interfering with the binding of Keap1 to NRF2.
Ten nanoliters of 100× compound dose response curves (serial 3-fold dilutions) in DMSO are stamped using an Echo liquid handling system (Labcyte) into 384-well, low volume, black assay plates (Greiner, #784076), with DMSO in columns 6 and 18. An additional 90 nl DMSO is added to each well, to bring the total volume to 100 nl per well. The top concentration of compound is located in columns 1 and 13, with the serial dilutions going across the row. All reagents are diluted in assay buffer (50 mM Tris, pH 8.0, 5 mM MgCl2, 100 mM NaCl, 0.005% BSA, 1 mM DTT, and 2 mM CHAPS. The BSA, DTT, and CHAPS are added to the assay buffer on the day of assay. Using a Multidrop Combi (Thermo Electron Corporation) equipped with a metal tip dispenser, 5 ul of 1.25 nM Keap1 FlagHis protein is added to all wells of the compound plate, with the exception of the wells in column 18. Wells in column 18 receive 5 ul of assay buffer instead. Plates are centrifuged at 500 rpm for 1 minute, covered with a plate lid, and incubated at 37° C. for 2.25 hours. Plates are then removed from the incubator and allowed to cool to RT for 15 minutes. Five microliters of 2.5 nM biotin-NRF2 protein is then added to all wells of the plates and the plates are spun at 500 rpm for 1 minute, followed by incubating at 4° C. for 1.25 hours. The plates are then allowed to warm to RT for 15 minutes, followed by the addition of 10 ul of detection mix (1 nM Streptavidin Eu+ W1024 and 5 ug/ml mouse anti-DYKDDDDK IgG conjugated to SureLight APC antibody; both from Columbia Biosciences) to all wells. Plates are spun at 500 rpm for 1 minute, incubated for 1 hour at RT, and read on an Envision plate reader using a 320 nm excitation filter and 615 nm and 665 nm emission filters. Compound response (% inhibition) and potency (pIC50) are calculated based on the ratio of the two emissions (665 nm/615 nm) and then the transformed data is normalized against controls in the assay (control 1=1% DMSO in the presence of NRF2 and Keap1 protein and control 2=1% DMSO in the presence of only the NRF2 protein). Data analysis is handled using the software package Abase XE (Surrey, United Kingdom). The % inhibition values are calculated from the ratio (transformed) data by the equation: 100−(100*(compound response-average control 2)/(average control 1−average control 2)). For calculation of pIC50s, Abase XE uses a four parameter equation.
In general terms: In TR-FRET formats the signal depends on donor and acceptor labels being close together.

In test [1] the test system is NQO1 specific enzyme activity in BEAS-2B cells. In words: BEAS-2B NQO1 MTT Assay. The format is cell-based. Particulars: Homo sapiens, BEAS-2B, 48 h, NQO1 specific activity induction. Summed up: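 BEAS-2B cells exposed to compound for 48 h at 37 °C, 5% CO2, then lysed. NQO1 activity in crude lysate read kinetically by MTT cocktail absorbance at 570 nm over 30 min. pEC50 from ΔOD/min versus log concentration, 3-parameter fit.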

T1 sequence (Q14145 321-609): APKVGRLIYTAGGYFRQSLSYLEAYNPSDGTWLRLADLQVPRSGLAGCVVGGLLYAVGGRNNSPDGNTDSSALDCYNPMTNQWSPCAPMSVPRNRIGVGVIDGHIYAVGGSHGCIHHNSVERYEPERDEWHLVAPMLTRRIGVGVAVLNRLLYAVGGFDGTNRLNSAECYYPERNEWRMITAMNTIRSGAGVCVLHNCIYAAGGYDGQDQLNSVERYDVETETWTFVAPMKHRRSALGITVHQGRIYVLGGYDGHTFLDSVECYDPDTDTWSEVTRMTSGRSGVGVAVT

Consider `Cn1cc([C@@H]2C[C@H]2c2c(C(=O)O)cnn2-c2cccc(N3CCCC(CCC4CCCCC4)C3)c2)nn1` (stereo partly drawn) [Example 35, 1-(3-(3-(2-cyclohexylethyl)piperidin-1-yl)phenyl)-5-((1R,2R)-2-(1-methyl-1H-1,2,3-triazol-4-yl)cyclopropyl)-1H-pyrazole-4-carboxylic Acid], for which the IC50 against Keap1/NRF2 and on NRF2/Keap1 was 10 to 100 nM in each case. In test [1], this compound displayed an EC50 of 1 to 10 nM.
`Cn1cc([C@@H]2C[C@H]2c2c(C(=O)O)cnn2-c2cccc(N3CCC[C@H](CCC4CCCCC4)C3)c2)nn1` [Example 36c, 1-(3-((S)-3-(2-Cyclohexylethyl)piperidin-1-yl)phenyl)-5-((1R,2R)-2-(1-methyl-1H-1,2,3-triazol-4-yl)cyclopropyl)-1H-pyrazole-4-carboxylic Acid]: the 50% inhibitory concentration (IC50) at Keap1/NRF2 and against NRF2/Keap1 was 10 to 100 nM each time. This compound showed a concentration for a half-maximal effect (EC50) in test [1] of 10 to 100 nM.
For the compound `Cn1cc([C@@H]2C[C@H]2c2c(C(=O)O)cnn2-c2cccc(N3CCC[C@@H](CCC4CCCCC4)C3)c2)nn1` [Example 36d, 1-(3-((R)-3-(2-cyclohexylethyl)piperidin-1-yl)phenyl)-5-((1R,2R)-2-(1-methyl-1H-1,2,3-triazol-4-yl)cyclopropyl)-1H-pyrazole-4-carboxylic Acid], the IC50 against Keap1/NRF2 and against NRF2/Keap1 was 10 to 100 nM each time. Besides, in test [1], the EC50 was 1 to 10 nM.
On to `Cn1cc([C@@H]2C[C@H]2c2c(C(=O)O)cnn2-c2cccc(N3CCC[C@@H](OCC4CCCCC4)C3)c2)nn1` [Example 43, 1-(3-((R)-3-(Cyclohexylmethoxy)piperidin-1-yl)phenyl)-5-((1R,2R)-2-(1-methyl-1H-1,2,3-triazol-4-yl)cyclopropyl)-1H-pyrazole-4-carboxylic Acid], for which the results for the concentration for half-maximal inhibition (IC50) at Keap1/NRF2 and against NRF2/Keap1 were 100 to 1000 nM and 10 to 100 nM, respectively. In test [1], this compound had a 50% effective concentration (EC50) of 100 to 1000 nM.

A word on the IC50: it is the concentration that gives 50% inhibition. A low value points to greater potency in that assay. What is called EC50 is the concentration giving half of the maximal effect. Low values mean greater potency, high ones weaker potency.
